Laboratory results from patent US20250313548A1 (Actio Biosciences, Inc., priority 2023, published 2025).

Biological target: human, KCNT1 (Homo sapiens (Human), UniProt Q5JUK3)
Assay: FLIPR Tl/K Flux Assay
Type: cell-based
Settings: HEK293 cells stably expressing human KCNT1; Tl+ flux stimulated with EC80 of agonist Loxapine
Procedure: HEK293 cells stably expressing human, KCNT1 were cultured in DMEM, 10% FBS, 100 U/mL penicillin-streptomycin and […] puromycin for selection purposes. One day before the assay, cells were detached using TrypLE™ Express and counted using a cell counter. Only cells with >85% viability were used for the assay. […] The cells were incubated overnight at 37° C., 5% (v/v) CO2.
On the day of the assay, the reagents were prepared following the FLIPR® Potassium Assay Kit manual: prepare 2× dye solution, dilute the dye with assay buffer (20 mM HEPES in 1× HBSS, PH7.4), addition of probenecid to a final concentration of 5 mM, and vortexed vigorously for 1-2 minutes. The cell plate was flicked to remove medium and tapped on paper towels to remove excess media. […] The cell plate was moved to a plate shaker, agitated at 600 rpm for two minutes, and then incubated at 25° C. for one hour.
The compounds were prepared in DMSO and transferred to a 384-well compound plate (PP, low binding), referred to as a source plate. Reference agonist (300 nM) compound and test inhibitor (10 mM) compounds were added to the compound plate and a 4-fold serial dilution was performed in DMSO. Using an ECHO dispenser, compounds were dispensed at 90 nL/well from the source plate to a 384-well compound plate (PP, low binding). After the dispensing was complete, 30 µL/well assay buffer was added to the compound plate and mixed for two minutes on a plate shaker. The cell plate, compound plate, and tips were loaded into the FLIPR instrument, and a transfer of 10 μl of 3× compound to the cell plate was initiated. The treated cell plate was kept at in the dark at 25° C. for 30 minutes. Chloride-free stimulation buffer containing 4× 2 mM Tl+ and 4×EC80 of agonist Loxapine was loaded into a 384-well compound plate (PP, low binding). After the 30-minute incubation, the cell plate, compound plate containing stimulation buffer, and FLIPR tips were loaded into the FLIPR instrument. After a baseline read, the FLIPR initiates a transfer of 10 μL of stimulation buffer containing Loxapine to the cell plate. The plate was read for 160 sec with 1 second interval reads to obtain the data.
The normalized fluorescence reading (RFU) was calculated as shown follow, while Fmax and Fmin stand for maximum and minimum of signal during defined time window. The IC50 was calculated by fitting % inhibition against log of compound concentrations with Hill equation using XLfit.

Chain of human, KCNT1 (Q5JUK3 whole entry): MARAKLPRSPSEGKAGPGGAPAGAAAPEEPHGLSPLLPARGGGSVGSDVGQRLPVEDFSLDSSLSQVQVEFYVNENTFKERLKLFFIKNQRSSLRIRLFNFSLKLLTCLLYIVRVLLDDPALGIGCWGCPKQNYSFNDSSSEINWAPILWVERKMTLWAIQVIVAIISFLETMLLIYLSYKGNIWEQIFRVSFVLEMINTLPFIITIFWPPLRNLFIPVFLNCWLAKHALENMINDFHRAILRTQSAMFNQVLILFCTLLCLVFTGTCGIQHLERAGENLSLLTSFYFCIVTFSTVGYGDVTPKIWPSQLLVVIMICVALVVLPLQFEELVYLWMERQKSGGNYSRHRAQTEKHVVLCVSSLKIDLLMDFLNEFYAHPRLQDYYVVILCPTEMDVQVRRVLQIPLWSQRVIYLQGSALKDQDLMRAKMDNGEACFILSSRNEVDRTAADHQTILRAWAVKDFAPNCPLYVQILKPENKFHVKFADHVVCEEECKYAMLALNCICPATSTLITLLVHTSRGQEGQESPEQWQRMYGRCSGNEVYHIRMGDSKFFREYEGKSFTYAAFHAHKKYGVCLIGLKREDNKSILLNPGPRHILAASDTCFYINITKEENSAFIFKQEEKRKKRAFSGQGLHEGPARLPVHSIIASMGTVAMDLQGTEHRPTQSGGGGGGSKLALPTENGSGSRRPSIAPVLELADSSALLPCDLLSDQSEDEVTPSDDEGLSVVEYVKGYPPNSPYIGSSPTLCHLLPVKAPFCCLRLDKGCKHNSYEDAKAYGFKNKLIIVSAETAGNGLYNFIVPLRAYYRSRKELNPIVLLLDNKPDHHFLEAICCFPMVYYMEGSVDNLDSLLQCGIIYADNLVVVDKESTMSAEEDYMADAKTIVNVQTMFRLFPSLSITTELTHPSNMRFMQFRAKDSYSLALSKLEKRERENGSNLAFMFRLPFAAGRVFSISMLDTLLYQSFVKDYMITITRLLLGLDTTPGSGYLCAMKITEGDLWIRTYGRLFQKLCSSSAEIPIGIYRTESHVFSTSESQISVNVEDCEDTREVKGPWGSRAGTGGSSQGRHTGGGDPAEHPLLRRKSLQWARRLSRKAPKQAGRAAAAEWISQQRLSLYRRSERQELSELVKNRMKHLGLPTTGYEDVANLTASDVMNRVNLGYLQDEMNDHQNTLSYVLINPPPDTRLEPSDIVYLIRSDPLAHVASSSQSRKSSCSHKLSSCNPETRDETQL

SMILES | IC50
O=C(N[C@H]1CCCn2nc(-c3ccnc(C(F)(F)F)c3)cc21)c1cc2n(n1)CCC2 [Compound I-368a] | > 1000 nM
CCOc1cc(-n2cc3c(n2)CCCC3NC(=O)c2cc(C(F)(F)F)ccc2C)ccn1 (racemic) [Compound I-28, (rac)-N-(2-(2-Ethoxypyridin-4-yl)-4,5,6,7-tetrahydro-2H-indazol-4-yl)-2-methyl-5-(trifluoromethyl)benzamide] | 250 to 500 nM
Cc1ccccc1C(=O)NC1CCCc2nn(-c3ccnc(C(F)(F)F)c3)cc21 (racemic) [Compound I-29, (rac)-2-Methyl-N-(2-(2-(trifluoromethyl)pyridin-4-yl)-4,5,6,7-tetrahydro-2H-indazol-4-yl)benzamide] | > 1000 nM
Cn1nc(C(F)(F)F)cc1C(=O)N[C@H]1CC(C)(C)Cn2nc(-c3ccnc(C(F)(F)F)c3)cc21 [Compound I-219a, (S)—N-(6,6-Dimethyl-2-(2-(trifluoromethyl)pyridin-4-yl)-4,5,6,7-tetrahydropyrazolo[1,5-a]pyridin-4-yl)-1-methyl-3-(trifluoromethyl)-1H-pyrazole-5-carboxamide] | > 1000 nM
Cc1cc(C(=O)N[C@H]2CCCn3nc(-c4ccnc(C(F)(F)F)c4)cc32)cn(C)c1=O [Compound I-397a] | > 1000 nM
Cc1cnc(C(F)(F)F)cc1-c1cc2n(n1)CCCC[C@H]2NC(=O)c1cc(C(F)(F)F)nn1C [Compound I-311b] | > 1000 nM
Cn1nc(C(F)(F)F)nc1C(=O)N[C@@H]1CCn2nc(-c3ccnc(C(C)(F)F)c3)cc21 [Compound I-480b] | 500 to 1000 nM
CS(=O)(=O)c1ccc(C(=O)N[C@@H]2CCc3nn(-c4ccnc(C(F)(F)F)c4)cc32)cc1 [Compound I-96b] | > 1000 nM
CS(=O)(=O)c1cccc(C(=O)N[C@H]2CCc3nn(-c4ccnc(C(F)(F)F)c4)cc32)c1 [Compound I-395a] | > 1000 nM
O=C(N[C@H]1CCCc2cnc(-c3ccnc(C(F)(F)F)c3)cc21)c1cc(F)cc(F)c1 [Compound I-461a] | < 250 nM
Cc1nc(C(F)(F)F)oc1C(=O)N[C@H]1CCCc2cnc(-c3ccnc(C(F)(F)F)c3)cc21 (single isomer, unassigned) [I-271*] | 500 to 1000 nM
Cn1nc(C(F)(F)F)cc1C(=O)N[C@H]1CCCn2nc(-c3ccnc(CO)c3)cc21 [Compound I-322a, (S)—N-(2-(2-(Hydroxymethyl)pyridin-4-yl)-4,5,6,7-tetrahydropyrazolo[1,5-a]pyridin-4-yl)-1-methyl-3-(trifluoromethyl)-1H-pyrazole-5-carboxamide] | > 1000 nM
CC(C)(C)C(=O)N[C@H]1CCc2nn(-c3ccnc(C(F)(F)F)c3)cc21 [Compound I-104a] | 500 to 1000 nM
COc1cc(-c2cc3n(n2)CCC[C@@H]3NC(=O)c2cccc(C(F)(F)F)c2)ccn1 [Compound I-355a] | < 250 nM
CCOc1cc(-n2cc3c(n2)CCCC[C@@H]3NC(=O)c2cccc(C)c2)ccn1 [Compound I-361a] | < 250 nM
O=C(N[C@H]1CCCn2nc(-c3cc(C(F)(F)F)ncc3F)nc21)c1cncc(C(F)(F)F)n1 [Compound I-182a, (S)-N-(2-(5-Fluoro-2-(trifluoromethyl)pyridin-4-yl)-5,6,7,8-tetrahydro-[1,2,4]triazolo[1,5-a]pyridin-8-yl)-6-(trifluoromethyl)pyrazine-2-carboxamide] | 500 to 1000 nM

Continued, values first:

IC50 | SMILES
< 250 nM | O=C(N[C@H]1CCc2nn(-c3ccnc(C(F)(F)F)c3)cc21)c1cc(F)cc(C2CC2)c1 [Compound I-562a, (S)-3-Cyclopropyl-5-fluoro-N-(2-(2-(trifluoromethyl)pyridin-4-yl)-2,4,5,6-tetrahydrocyclopenta[c]pyrazol-4-yl)benzamide]
< 250 nM | O=C(N[C@H]1CCCn2nc(-c3ccnc(C(F)(F)F)c3)cc21)c1ccnn1CC(F)F [Compound I-403a]
< 250 nM | O=C(N[C@H]1CCn2nc(-c3ccnc(C4CC4)c3)cc21)C12CC(CC(F)(F)F)(C1)C2 [Compound I-584a, (S)-N-(2-(2-Cyclopropylpyridin-4-yl)-5,6-dihydro-4H-pyrrolo[1,2-b]pyrazol-4-yl)-3-(2,2,2-trifluoroethyl)bicyclo[1.1.1]pentane-1-carboxamide]
< 250 nM | CC(F)(F)c1cc(-c2cc3n(n2)CCC[C@@H]3NC(=O)c2ccnc(C(F)(F)F)c2)ccn1 [Compound I-500a, (S)-N-(2-(2-(1,1-Difluoroethyl)pyridin-4-yl)-4,5,6,7-tetrahydropyrazolo[1,5-a]pyridin-4-yl)-2-(trifluoromethyl)isonicotinamide]
< 250 nM | COc1cc(C(=O)N[C@H]2CCn3nc(-c4ccnc(C(F)(F)F)c4)cc32)ccn1 [Compound I-331a, (S)-2-Methoxy-N-(2-(2-(trifluoromethyl)pyridin-4-yl)-5,6-dihydro-4H-pyrrolo[1,2-b]pyrazol-4-yl)isonicotinamide]
< 250 nM | Cn1nc(C(F)(F)F)cc1C(=O)NC1CCc2nn(-c3ccnc(C(F)(F)F)c3)cc21 (racemic) [Compound I-1, (rac)-1-Methyl-3-(trifluoromethyl)-N-(2-(2-(trifluoromethyl)pyridin-4-yl)-2,4,5,6-tetrahydrocyclopenta[c]pyrazol-4-yl)-1H-pyrazole-5-carboxamide]
< 250 nM | N#Cc1cccc(C(=O)N[C@H]2CCCc3oc(-c4ccnc(C5CC5)c4)nc32)c1 [Compound I-232a, (S)-3-Cyano-N-(2-(2-cyclopropylpyridin-4-yl)-4,5,6,7-tetrahydrobenzo[d]oxazol-4-yl)benzamide]
< 250 nM | O=C(N[C@H]1CCCn2nc(-c3ccnc(C(F)(F)F)c3)cc21)c1ccnc(C(F)(F)F)n1 [Compound I-327a, (S)-2-(Trifluoromethyl)-N-(2-(2-(trifluoromethyl)pyridin-4-yl)-4,5,6,7-tetrahydropyrazolo[1,5-a]pyridin-4-yl)pyrimidine-4-carboxamide]
< 250 nM | O=C(N[C@H]1CCCn2nc(-c3ccnc(C(F)(F)F)c3)cc21)c1cccc(C(F)(F)F)c1F [Compound I-419a]
< 250 nM | COc1cc(-c2cc3n(n2)CC[C@@H]3NC(=O)c2ccc(F)c(C#N)c2)ccn1 [Compound I-257a, (S)-3-Cyano-4-fluoro-N-(2-(2-methoxypyridin-4-yl)-5,6-dihydro-4H-pyrrolo[1,2-b]pyrazol-4-yl)benzamide]
< 250 nM | CC(C)(O)c1cc(F)cc(C(=O)N[C@H]2CCc3nn(-c4ccnc(C(F)(F)F)c4)cc32)c1 [Compound I-563a, (S)-3-Fluoro-5-(2-hydroxypropan-2-yl)-N-(2-(2-(trifluoromethyl)pyridin-4-yl)-2,4,5,6-tetrahydrocyclopenta[c]pyrazol-4-yl)benzamide]
< 250 nM | O=C(N[C@H]1CCn2nc(-c3ccnc(C(F)(F)F)c3)cc21)c1ccn2nccc2c1 [Compound I-550a, (S)-N-(2-(2-(Trifluoromethyl)pyridin-4-yl)-5,6-dihydro-4H-pyrrolo[1,2-b]pyrazol-4-yl)pyrazolo[1,5-a]pyridine-5-carboxamide]
< 250 nM | O=C(N[C@H]1CCn2nc(-c3cc(C(F)(F)F)ncc3F)cc21)c1ccnc(OC(F)(F)F)c1 [Compound I-536a, (S)-N-(2-(5-Fluoro-2-(trifluoromethyl)pyridin-4-yl)-5,6-dihydro-4H-pyrrolo[1,2-b]pyrazol-4-yl)-2-(trifluoromethoxy)isonicotinamide]
< 250 nM | O=C(N[C@H]1CCCn2nc(-c3ccnc(C4CC4)c3)cc21)c1cc(Cl)cc(C(F)(F)F)c1 [Compound I-111a]
< 250 nM | CC(C)n1nc(C(F)(F)F)cc1C(=O)N[C@H]1CCCn2nc(-c3ccnc(C(F)(F)F)c3)cc21 [Compound I-381a]
< 250 nM | COc1cc(C(=O)N[C@H]2CCn3nc(-c4cc(OC)ncc4F)cc32)ccn1 [Compound I-560a, (S)-N-(2-(5-Fluoro-2-methoxypyridin-4-yl)-5,6-dihydro-4H-pyrrolo[1,2-b]pyrazol-4-yl)-2-methoxyisonicotinamide]
< 250 nM | N#Cc1cc(F)cc(C(=O)N[C@@H]2CCCCn3nc(-c4ccnc(C5CC5)c4)cc32)c1 [Compound I-470b]
< 250 nM | COc1cc(-c2nc3c(o2)[C@@H](NC(=O)c2cccc(C(F)(F)F)c2)CCC3)c(Cl)cn1 [Compound I-167a, (S)-N-(2-(5-Chloro-2-methoxypyridin-4-yl)-4,5,6,7-tetrahydrobenzo[d]oxazol-7-yl)-3-(trifluoromethyl)benzamide]
< 250 nM | CN(C(=O)N[C@H]1CCc2nn(-c3ccnc(C(F)(F)F)c3)cc21)c1ccccc1 [Compound I-102a]
< 250 nM | O=C(N[C@H]1CCc2nn(-c3ccnc(C(F)(F)F)c3)cc21)c1cc(F)cc(Cl)c1 [Compound I-396a]
< 250 nM | N#Cc1ccc(C(=O)N[C@H]2CCCn3nc(-c4ccnc(C(F)(F)F)c4)cc32)cc1 [Compound I-349a]
